Laboratory results reported in patent US10576102B2, “KOC1-derived peptide and vaccine including same” (ONCOTHERAPY SCIENCE, INC., priority 2014, dated 2020).

Assays:
peptide-pulsed C1R-A03 = test: In vitro CTL induction, IFN-gamma ELISPOT assay (HLA-A*0301); format: cell-based, human; conditions: CTLs induced with peptide-pulsed DCs from HLA-A*0301-positive volunteers; day 21; vs peptide-pulsed C1R-A03, compared with unpulsed control
Experimental: (§1) C1R (C1R-A03) that stably expresses HLA-A*0301 was used as a stimulator cell. A cDNA encoding the open-reading frame of HLA-A*0301 was amplified by PCR and cloned into an expression vector. C1R cells were transfected with the expression vector, and then selected using G418 (Invitrogen) for two weeks. The G418-selected cells were seeded into wells containing G418-added culture medium in a 96-well plate, and further cultured for 30 days. The exogenous HLA-A*0301 expression in C1R cells was verified by flow cytometric analysis.
Monocyte-derived dendritic cells (DCs) were used as the antigen-presenting cell to induce a cytotoxic T lymphocyte (CTL) response against peptides presented on human leukocyte antigens (HLAs). As described in the other sections, DCs were generated in vitro (Nakahara S et al., Cancer Res 2003, 63(14): 4112-8). Specifically, peripheral-blood mononuclear cells isolated from healthy volunteers (HLA-A*0301-positive) with the Ficoll-Paque plus solution (Pharmacia) were separated by attaching to plastic tissue culture dishes (Becton Dickinson) and concentrated as a monocyte fraction. The monocyte-concentrated population was cultured in the presence of 1000 IU/ml granulocyte macrophage colony-stimulating factor (R&D System) and 1000 IU/ml interleukin(IL)-4 (R&D System) in an AIM-V medium (Invitrogen) containing 2% heat-inactivated autologous serum (AS). After seven days of culturing, the cytokine-induced DCs were pulsed with 20 micro-g/ml each of the synthesized peptides in an AIM-V medium at 37 degrees C. for three hours in the presence of 3 micro-g/ml beta 2-microglobulin. The generated cells appeared to express on their cell surface DC-associated molecules such as CD80, CD83, CD86 and HLA class II (data not shown). Next, these peptide-pulsed DCs were inactivated by X-ray irradiation (20 Gy), and mixed in a 1:20 ratio with autologous CD8^+ T cells obtained by positive selection using the CD8 Positive Isolation Kit (Dynal). These culture products were seeded in a 48-well plate (Corning). Each well was made to contain 1.5×10^4 peptide-pulsed DCs, 3×10^5 CD8^+ T cells and 10 ng/ml IL-7 (R&D System) in 0.5 ml of the AIM-V/2% AS medium. Three days later, these culture products were added with a final concentration of 20 IU/ml IL-2 (CHIRON). On day 7 and day 14, T cells were further stimulated with peptide-pulsed autologous DCs. The DCs were prepared every time by the same method as above. […]

peptide-pulsed C1R-A33 = test: In vitro CTL induction, IFN-gamma ELISPOT assay (HLA-A*3303); format: cell-based, human; conditions: CTLs induced with peptide-pulsed DCs from HLA-A*3303-positive volunteers; day 21; vs peptide-pulsed C1R-A33, compared with unpulsed control
Experimental: as §1, with “(C1R-A33)” for “(C1R-A03)”, “HLA-A*3303” for “HLA-A*0301”
Monocyte-derived dendritic cells (DCs) were used as the antigen-presenting cell to induce a cytotoxic T lymphocyte (CTL) response against peptides presented on human leukocyte antigens (HLAs). As described in the other sections, DCs were generated in vitro (Nakahara S et al., Cancer Res 2003, 63(14): 4112-8). Specifically, peripheral-blood mononuclear cells isolated from healthy volunteers (HLA-A*3303-positive) with the Ficoll-Paque plus solution (Pharmacia) were separated by attaching to plastic tissue culture dishes (Becton Dickinson) and concentrated as a monocyte fraction. The monocyte-concentrated population was cultured in the presence of 1000 IU/ml granulocyte macrophage colony-stimulating factor (R&D System) and 1000 IU/ml interleukin(IL)-4 (R&D System) in an AIM-V medium (Invitrogen) containing 2% heat-inactivated autologous serum (AS). After seven days of culturing, the cytokine-induced DCs were pulsed with 20 micro-g/ml each of the synthesized peptides in an AIM-V medium at 37 degrees C. for three hours in the presence of 3 micro-g/ml beta 2-microglobulin. The generated cells appeared to express on their cell surface DC-associated molecules such as CD80, CD83, CD86 and HLA class II (data not shown). Next, these peptide-pulsed DCs were inactivated by X-ray irradiation (20 Gy), and mixed in a 1:20 ratio with autologous CD8^+ T cells obtained by positive selection using the CD8 Positive Isolation Kit (Dynal). These culture products were seeded in a 48-well plate (Corning). Each well was made to contain 1.5×10^4 peptide-pulsed DCs, 3×10^5 CD8^+ T cells and 10 ng/ml IL-7 (R&D System) in 0.5 ml of the AIM-V/2% AS medium. Three days later, these culture products were added with a final concentration of 20 IU/ml IL-2 (CHIRON). On day 7 and day 14, T cells were further stimulated with peptide-pulsed autologous DCs. The DCs were prepared every time by the same method as above. On day 21, after the third peptide stimulation, CTLs were examined against the peptide-pulsed C1R-A33 cell by a human interferon (IFN)-gamma enzyme-linked immunospot (ELISPOT) assay (Tanaka H et al., Br J Cancer 2001, 84(1): 94-9; Umano Y et. al., Br J Cancer 2001, 84(8): 1052-7; Uchida N et al., Clin Cancer Res 2004, 10(24): 8577-86; Suda T et al., Cancer Sci 2006, 97(5): 411-9; Watanabe T et al., Cancer Sci 2005, 96(8): 498-506).
Specifically, peptide-pulsed C1R-A33 (1×10^4 cells/well) was prepared as the stimulator cell. The induced CTLs, i.e., CTL lines and CTL clones, were used as the responder cell. The IFN-gamma ELISPOT assay and IFN-gamma ELISA were performed according to the manufacturer's manual.

TQFVGAIIGK (a peptide derived from KOC1) [SEQ ID NO: 30]
peptide-specific CTL activity (IFN-gamma production), ELISPOT (peptide-pulsed C1R-A03): potent IFN-gamma production

ILAHNNFVGR (a peptide derived from KOC1) [SEQ ID NO: 52]
peptide-specific CTL activity (IFN-gamma production), ELISPOT (peptide-pulsed C1R-A03): potent IFN-gamma production | peptide-specific CTL activity (IFN-gamma production), ELISPOT (peptide-pulsed C1R-A33): potent IFN-gamma production
